# Measurements from US20070155023A1, “Identification of proteins and other species with emissive chelating label” (Massachusetts Institute of Technology, priority 2005, published 2007).
# Key:
# [1] = Photophysical properties (absorbance, emission, quantum yield) in pH 7 buffer; assay type: physicochemical; details: for Quantum yield Φ: no metal ion, pH 7, 22° C., relative to fluorescein
# Excerpt: General Procedure. Acetonitrile (MeCN) was dried over 3 Å molecular sieves. Triethylamine (Et3N) and chloroform (CHCl3) were purchased from Aldrich and used as received. 6-Carboxy-2′,7′-dichlorofluorescein-3′,6′-diacetatesuccinimidyl ester was synthesized by a method previously developed in this laboratory. ^1N,N-Bis(carboxymethyl)-L-lysine hydrate was purchased from Fluka and used as received. ^1H and ^13C NMR spectra were acquired on either a Varian 300 Mhz or a Varian 500 MHz spectrometer and referenced to internal standards. IR spectra were collected on an Avatar 360 FT-IR instrument. Melting points were measured with a Mel-Temp apparatus. Fluorescence spectra were obtained on a Hitachi F-3020 spectrofluorimeter, and UV/vis spectra were acquired on a Cary 1E spectrophotometer. Low-resolution mass spectra were collected on an Agilent 1100 Series LC/MSD system. High-resolution mass spectra were provided by staff at the MIT Department of Chemistry Instrumentation Facility. Preliminary cell images were acquired with a Nikon Eclipse TS100 microscope equipped with an RT Diagnostics camera with illumination provided by a Chiu Mercury 100 W lamp. Magnification was 20×. The cell imaging system was operated with Spot Advanced software. Fluorescence images were obtained using a FITC-HYQ filter cube (excitation 460-500 nm, bandpass 510-560 nm). Select cell images were acquired with a LSM510 confocal microscope.
# Aqueous solutions were prepared with Millipore water. A 2.25 mM stock solution of NTA-DCF in DMSO was prepared, separated into aliquots, stored at −25° C., and thawed in the dark immediately before use. All spectroscopic data were collected in a pH 7 buffer solution of 50 mM piperazine-N,N′-bis(2-ethanesulfonic acid) (PIPES) and 100 mM KCl unless noted otherwise. Solution magnetic susceptibilities were measured by the Evan's method. Spectroscopic data were taken at room temperature (22° C.). Quantum yields were measured relative to fluorescein in 0.1 M NaOH (Φ=0.95).
# The photophysical properties of the signaling entity were measured to observe the effect that introduction of the NTA functionality may have on the absorbance and/or emission of the signaling entity.
# HEK 293-T cells = assay: Cell permeability of living HEK 293-T cells; assay type: in vitro ADME; details: alone or as its Ni^2+ adduct, 5 μM, 5 min, 22° C., PBS
# Protocol: (§1) The cells as described in Example 3 were used for labeling with NTA-DCF two days after transfection with plasmid. Immediately prior to labeling, the cells were washed once with PBS. A stock solution of complexed Ni^2+-NTA-DCF was prepared by mixing 2.5 mM NiCl2 and 2.5 mM NTA-DCF in a 1:1 ratio in PBS. HeLa and HEK 293-T cells were each washed once with PBS, then incubated with 5 μM Ni^2+-NTA-DCF for 5 min at 22° C. in PBS. The cells were subsequently rinsed twice with PBS, fixed with 4% paraformaldehyde for 5 min, washed with two portions of PBS, and mounted using Vectashield anti-fading reagent (Vector Labs). As a negative control, a cell sample was incubated with NTA-DCF without added Ni^2+. In order to gauge the reversibility of staining, 5 mM EDTA was added to a sample of cells stained with 5 μM NTA-DCF and 5 μM Ni^2+. […] This impermeability can be exploited to label and image selectively proteins on the extracellular side of the cell membrane. The NTA-DCF composition was premixed with an equimolar concentration of NiCl2, and the mixture was added to a sample containing either HeLa or HEK 293-T cells.
# [2] = system: polyhistidine sequences on HeLa cells transfected with pDisplay-6×His; assay: Fluorescent labeling of extracellular His6 tags on transfected HeLa cells (confocal microscopy); assay type: cell-based
# Protocol: (§2) This example describes the incorporation of an affinity tag within a target analyte (e.g., a cell). A polyhistidine affinity tag was incorporated within a plasmid, which was then used for transfection with the target cell. pDisplay-6×His was constructed by introduction of an oligonucleotide encoding for a His6 tag (5′-CATCATCATCATCATCAT-3′) into a pDisplay plasmid (Invitrogen) digested with BglII and SalI.
# (§3) Both HeLa and HEK 293-T cells were cultured in Dulbecco's Modified Eagle Medium (DMEM) supplemented with 10% fetal calf serum (FCS, Invitrogen), glutamine (2 mM), Penicillin (100 units/mL) and Streptomycin (100 μg/mL). The cells were passed and plated on 18 mm glass coverslips coated with 0.2% gelatin 36 hours before transfection. […]
# (§4) The fluorescently-labeled cells may be monitored by confocal microscopy. Confocal images of cells (NTA-DCF staining and mRFP fluorescence) were obtained with a Zeiss LSM510 microscope equipped with a 100× objective. […] Images of cells stained with Hoechst 33285 were obtained with a Zeiss Axioscope fluorescence microscope equipped with a 40× objective and a Hamamatsu digital camera. […]
# (§5) A metal chelator was added to observe the effect on binding of NTA-DCF probe to the target cell. […] In the absence of EDTA or a similar metal scavenging agent, the label-protein construct persisted for at least 20 min after washing, but its stability has not yet been fully assessed.
# [3] = system: polyhistidine sequences on HEK 293-T cells transfected with pDisplay-6×His; assay: Fluorescent labeling of extracellular His6 tags on transfected HEK 293-T cells (confocal microscopy); assay type: cell-based
# Protocol: as §2, §3, §4, §5
# HeLa cells = assay: Cell permeability of living HeLa cells; assay type: in vitro ADME; details: alone or as its Ni^2+ adduct, 5 μM, 5 min, 22° C., PBS
# Protocol: as §1
# [4] = system: cell cultures (nuclei stained with Hoechst 33285); assay: Nuclear morphology study of NTA-DCF toxicity; assay type: cell-based
# Protocol: Cells were incubated with either NTA-DCF or PBS for five min, washed twice with PBS, and fixed for 5 min with 4% p-formaldehyde. After fixation, the cells were rinsed four times with PBS (5 min each wash). Hoechst 33285 dye (Molecular Probes) was added to the second rinse such that the final concentration reached 2 μg/ml.
# [5] = pDisplay-6×His, premixed with equimolar NiCl2
"Quantum yield Φ ([1]; 50 mM PIPES, 100 mM KCl)",Emission λmax ([1]; pH 7 buffer),Entry into cells (HEK 293-T cells),"Decrease in fluorescence emission upon addition of NiCl2 ([1]; 50 mM PIPES, 100 mM KCl, pH 7.0, FIG. 2)","Quantum yield Φ after chelation of a paramagnetic metal ion ([1]; after chelation of Ni^2+, relative to fluorescein in 0.1 M NaOH)",Extinction coefficient ε ([1]; at 504 nm),Absorption band ([1]; pH 7 buffer),melting point,Entry into cells (HeLa cells),Structure (SMILES),"Binding of the probe when Ni^2+ is unavailable ([2]; 5 μM NTA-DCF without NiCl2, 5 min, FIG. 4B)","Fluorescent labeling of polyhistidine sequences on extracellular plasma membrane surface [2, 5]","Binding of the probe when the polyhistidine tag is not expressed ([3]; pDisplay without His6 tags, 5 μM NTA-DCF and 5 μM NiCl2, FIG. 5B)","Fluorescent labeling of polyhistidine sequences on extracellular plasma membrane surface [3, 5]","Toxicity (nuclear morphology study) ([4]; 5-μM dose, five min incubation, FIG. 7)","Change of size and shape of nuclei ([4]; addition of NTA-DCF, five min, Hoechst staining)"
0.88,526 nm,,,,,,,,"O=C1OC2(c3cc(Cl)c(O)cc3Oc3cc(O)c(Cl)cc32)c2ccccc21 [2′,7′-dichlorofluorescein, reference compound]",,,,,,
0.78,527 nm,not enter,5%,0.72,86000 M⁻¹ cm⁻¹,504 nm,182 °C (dec.),not enter,"O=C(O)CN(CC(=O)O)C(CCCCNC(=O)c1ccc(C(=O)O)c(-c2c3cc(Cl)c(=O)cc-3oc3cc(O)c(Cl)cc23)c1)C(=O)O (centres unmarked) [NTA-DCF, N-[5-(Bis-carboxymethyl-amino)-5-carboxy-pentyl]-2-(2,7-dichloro-6-hydroxy-3-oxo-3H-xanthen-9-yl)-terephthalamic acid]",blocked,fluorescently label,blocked,fluorescently label,not toxic,Neither the size nor shapes of the nuclei change
